# Reference: ChEMBL document CHEMBL5512645, “A novel antimicrobial peptide with broad-spectrum and exceptional stability derived from the natural peptide Brevicidine” (Eur J Med Chem, 2024)
# Active and inactive are the calls of the source. No cut-off for these calls is given here. Bridge positions count the residues as written; N and C are the ends. Square brackets hold non-standard residues; d marks the D form. Peptide text beside a SMILES is read from it. * marks the point of attachment. ξ: configuration not given here. Hexanoyl(4ξ-Me) = CCC(C)CCC(=O)*; dOrn = NCCC[C@@H](N)C(=O)O; Orn = NCCC[C@H](N)C(=O)O
# Tests used:
# [1] = system: Staphylococcus aureus; experiment: Antibacterial activity against Staphylococcus aureus ATCC 25923 pretreated with 2.5% mouse serum followed by compound addition and measured after 1 hr by broth microdilution method (reference value: 8 microM); assay type: functional
# [2] = system: Staphylococcus aureus; experiment: Antibacterial activity against Staphylococcus aureus ATCC 25923 pretreated with 5% mouse serum followed by compound addition and measured after 1 hr by broth microdilution method (reference value: 8 microM); assay type: functional
# [3] = system: Staphylococcus aureus; experiment: Antibacterial activity against Staphylococcus aureus ATCC 25923 pretreated with 20% mouse serum followed by compound addition and measured after 1 hr by broth microdilution method (reference value: 8 microM); assay type: functional
# [4] = system: Staphylococcus aureus; experiment: Antibacterial activity against Staphylococcus aureus ATCC 25923 pretreated with 2.5% mouse serum followed by compound addition and measured after 6 hrs by broth microdilution method (reference value: 8 microM); assay type: functional
# [5] = system: Staphylococcus aureus; experiment: Antibacterial activity against Staphylococcus aureus ATCC 25923 pretreated with 20% mouse serum followed by compound addition and measured after 6 hrs by broth microdilution method (reference value: 8 microM); assay type: functional
# [6] = system: Staphylococcus aureus; experiment: Antibacterial activity against Staphylococcus aureus ATCC 25923 pretreated with Na-cl followed by compound addition and measured after 2 hrs by broth microdilution method (reference value: 8 microM); assay type: functional
# [7] = system: Staphylococcus aureus; experiment: Antibacterial activity against Staphylococcus aureus ATCC 25923 pretreated with Kcl followed by compound addition and measured after 2 hrs by broth microdilution method (reference value: 8 microM); assay type: functional
# [8] = system: Pseudomonas aeruginosa; experiment: Bactericidal activity against Pseudomonas aeruginosa ATCC 27853 assessed as assessed as eradication of bacterial cells at 2 to 4 times MIC measured after 10 mins by time killing analysis; assay type: functional, organism-based
# [9] = system: Cell membrane; experiment: Induction of outer membrane permeabilization in Pseudomonas aeruginosa ATCC 27853 assessed increase in fluorescence intensity at 1/2 to 4 times MIC measured upto 12 mins by fluorescence based NPN uptake assay; assay type: cell membranes
# [10] = system: Pseudomonas aeruginosa; experiment: Induction of morphological changes in Pseudomonas aeruginosa ATCC 27853 assessed as adhesion at 2 times MIC measured after 0.5 hrs by SEM based analysis; assay type: functional, organism-based
# [11] = system: Staphylococcus aureus; experiment: Induction of morphological changes in Staphylococcus aureus ATCC 25923 assessed as increase in volume of swelling at 2 times MIC measured after 2 hrs by SEM based analysis; assay type: functional, organism-based
# [12] = Toxicity in male BALB/c mouse assessed as survival rate at 42.6 mg/kg, ip measured after 6 days relative to control; assay type: organism-based; settings: in vivo, time 6 day
# [13] = Toxicity in male BALB/c mouse assessed as inflammatory cell infiltration in liver at 46.88 mg/kg, ip administered as single dose by H and E staining based analysis; assay type: organism-based; settings: in vivo
# [14] = Toxicity in male BALB/c mouse assessed as inflammatory cell infiltration in kidney at 46.88 mg/kg, ip administered as single dose by H and E staining based analysis; assay type: organism-based; settings: in vivo
# [15] = system: Staphylococcus aureus; experiment: Antibacterial activity against Staphylococcus aureus ATCC 25923 assessed as fold increase in MIC pretreated with MgCl2 followed by compound addition and measured after 2 hrs by broth microdilution method; assay type: functional
# [16] = system: Staphylococcus aureus; experiment: Antibacterial activity against Staphylococcus aureus ATCC 25923 pretreated with 2.5% mouse serum followed by compound addition and measured after 1 hr by broth microdilution method (reference value: 64 microM); assay type: functional
# [17] = system: Staphylococcus aureus; experiment: Antibacterial activity against Staphylococcus aureus ATCC 25923 pretreated with 10% mouse serum followed by compound addition and measured after 1 hr by broth microdilution method (reference value: 64 microM); assay type: functional
# [18] = system: Staphylococcus aureus; experiment: Antibacterial activity against Staphylococcus aureus ATCC 25923 pretreated with 20% mouse serum followed by compound addition and measured after 1 hr by broth microdilution method (reference value: 64 microM); assay type: functional
# [19] = system: Staphylococcus aureus; experiment: Antibacterial activity against Staphylococcus aureus ATCC 25923 pretreated with 2.5% mouse serum followed by compound addition and measured after 6 hrs by broth microdilution method (reference value: 64 microM); assay type: functional
# [20] = system: Pseudomonas aeruginosa; experiment: Antimicrobial activity against Pseudomonas aeruginosa ATCC 27853 assessed as reduction in microbial growth at 2 times MIC measured for 18 hrs in presence of 64 microg/ml LPS; assay type: functional, organism-based
# [21] = system: Cell membrane; experiment: Induction of outer membrane permeabilization in Pseudomonas aeruginosa ATCC 27853 assessed increase in fluorescence intensity at 1/2 MIC measured upto 12 mins by fluorescence based NPN uptake assay; assay type: cell membranes
# [22] = system: Cell membrane; experiment: Induction of cytoplasmic membrane depolarization in Staphylococcus aureus ATCC 25923 assessed as increase in fluorescence intensity at 1/2 to 4 times MIC measured within 1 min by DiSC3-5 dye based fluorescence method; assay type: cell membranes
# [23] = system: Staphylococcus aureus; experiment: Induction of morphological changes in Staphylococcus aureus ATCC 25923 assessed as membrane rupture at 2 times MIC measured after 0.5 hrs by SEM based analysis; assay type: functional, organism-based
# [24] = system: Pseudomonas aeruginosa; experiment: Antibacterial activity against Pseudomonas aeruginosa ATCC 27853 assessed as fold increase in MIC pretreated with 2.5 to 20% mouse serum followed by compound addition and measured after 1 hr by broth microdilution method; assay type: functional
# [25] = system: Pseudomonas aeruginosa; experiment: Antibacterial activity against Pseudomonas aeruginosa ATCC 27853 assessed as fold increase in MIC pretreated with 2.5 to 20% mouse serum followed by compound addition and measured after 6 hr by broth microdilution method; assay type: functional
# [26] = system: Staphylococcus aureus; experiment: Antibacterial activity against Staphylococcus aureus ATCC 25923 assessed as fold increase in MIC pretreated with 2.5 to 20% mouse serum followed by compound addition and measured after 6 hr by broth microdilution method; assay type: functional
# [27] = system: Staphylococcus aureus; experiment: Antibacterial activity against Staphylococcus aureus ATCC 25923 pretreated with 10% mouse serum followed by compound addition and measured after 1 hr by broth microdilution method (reference value: 16 microM); assay type: functional, organism-based
# [28] = system: Staphylococcus aureus; experiment: Antibacterial activity against Staphylococcus aureus ATCC 25923 pretreated with 10% mouse serum followed by compound addition and measured after 6 hrs by broth microdilution method (reference value: 16 microM); assay type: functional, organism-based
# [29] = system: Staphylococcus aureus; experiment: Antibacterial activity against Staphylococcus aureus ATCC 25923 pretreated with 20% mouse serum followed by compound addition and measured after 6 hrs by broth microdilution method (reference value: 16 microM); assay type: functional, organism-based
# [30] = system: Staphylococcus aureus; experiment: Antibacterial activity against Staphylococcus aureus ATCC 25923 pretreated with Na-cl followed by compound addition and measured after 2 hrs by broth microdilution method (reference value: 16 microM); assay type: functional, organism-based
# [31] = system: Staphylococcus aureus; experiment: Antibacterial activity against Staphylococcus aureus ATCC 25923 pretreated with Kcl followed by compound addition and measured after 2 hrs by broth microdilution method (reference value: 16 microM); assay type: functional, organism-based
# [32] = system: Staphylococcus aureus; experiment: Antibacterial activity against Staphylococcus aureus ATCC 25923 pretreated with Mgcl2 followed by compound addition and measured after 2 hrs by broth microdilution method (reference value: 16 microM); assay type: functional, organism-based
# [33] = system: Pseudomonas aeruginosa; experiment: Antibiofilm activity against Pseudomonas aeruginosa ATCC 27853 assessed as biofilm eradication at 1/2 to 4 times MIC measured after 24 hrs by crystal violet staining based analysis; assay type: functional, organism-based
# [34] = system: Cell membrane; experiment: Induction of outer membrane permeabilization in Pseudomonas aeruginosa ATCC 27853 assessed increase in fluorescence intensity at 1/2 to 4 times MIC by fluorescence based NPN uptake assay; assay type: cell membranes; settings: time <= 12.0 min, TDE = time-dependent effect
# [35] = system: Cell membrane; experiment: Induction of cytoplasmic membrane depolarization in Staphylococcus aureus ATCC 25923 assessed as increase in fluorescence intensity at 4 times MIC measured upto 12 min by DiSC3-5 dye based fluorescence method; assay type: cell membranes
compound,measurement,setting,value
CCCCCCCCCC(=O)N[C@H](CCCN)C(=O)N[C@H](Cc1ccc(O)cc1)C(=O)N[C@H](Cc1c[nH]c2ccccc12)C(=O)N[C@H](CCCN)C(=O)N[C@@H](CCCN)C(=O)NCC(=O)N[C@H](CCCN)C(=O)N[C@@H](Cc1c[nH]c2ccccc12)C(=O)N[C@H](C(=O)N[C@H](C(=O)NCC(=O)N[C@@H](CO)C(=O)O)[C@@H](C)CC)[C@@H](C)O,MIC,[1],16 µM
same,MIC,[2],16 µM
same,MIC,[3],> 128 µM
same,MIC,[4],16 µM
same,MIC,[5],> 128 µM
same,MIC,[6],16 µM
same,MIC,[7],8 µM
same,Activity,[8],Active
same,Activity,[9],inactive
same,Activity,[10],Active
same,Activity,[11],Active
same,survival at 144 h,[12],50%
same,Activity,[13],Toxic
same,Activity,[14],Toxic
same,fold change (FC),[15],2
CCC(C)CCC(=O)N[C@H](CC(N)=O)C(=O)N[C@H](Cc1ccc(O)cc1)C(=O)N[C@H](Cc1c[nH]c2ccccc12)C(=O)N[C@H](CCCN)C(=O)N[C@@H](CCCN)C(=O)NCC(=O)N[C@H](CCCN)C(=O)N[C@@H](Cc1c[nH]c2ccccc12)C(=O)N[C@@H]1C(=O)N[C@@H]([C@@H](C)CC)C(=O)NCC(=O)N[C@@H](CO)C(=O)O[C@@H]1C (stereo not given in full) ({Hexanoyl(4ξ-Me)}-[dN][dY][dW][dOrn][Orn]G[dOrn]WTIGS; ester 9-C),MIC,[16],64 µM
same,MIC,[17],64 µM
same,MIC,[18],128 µM
same,MIC,[19],128 µM
same,Activity,[20],inactive
same,Activity,[21],inactive
same,Activity,[22],Active
same,Activity,[23],Active
same,fold change (FC),[24],2
same,fold change (FC),[25],4
same,fold change (FC),[26],2
POLYMYXIN B,MIC,[27],16 µM
same,MIC,[28],16 µM
same,MIC,[29],16 µM
same,MIC,[30],16 µM
same,MIC,[31],8 µM
same,MIC,[32],8 µM
same,Activity,[33],Active
same,Activity,[34],Tde
same,Activity,[35],inactive
